Results on five molecules are retold here after patent publication US10933132B2, “Combination of epigenetic factors and bispecific compounds targeting CD33 and CD3 in the treatment of myeloid leukemia” (AMGEN RESEARCH (MUNICH) GMBH, priority 2013, dated 2021).

Data set [1] has as its system HL-60 AML cells. Briefly: Hydroxyurea up-regulation of CD33 on AML cell lines, flow cytometry. The data set is classed as cell-based. The conditions noted are these: for CD33 MFI Ratio: day 3, untreated 134.9. As to the method: (§1) AML cell lines HL-60, PL21, OCI-AML3, KG1a and MV4-11 were seeded in 24-well plates at 1×10^6 cells/ml on day 0. Cells were either left untreated (UT) or treated with 10 μM (H1) or 100 μM (H2) hydroxyurea (Sigma) for three consecutive days (day 0, day 1 and day 2). On day 3, cells were harvested, counted and analyzed for changes in CD33 surface expression level by flow cytometry.

In data set [2] the test system is PL21 AML cells. Described as above. Conditions: for CD33 MFI Ratio: day 3, untreated 166.9. The data set is classed as cell-based. How it is done: as §1
The subject of data set [3] is primary AML cells. Briefly: Hydroxyurea up-regulation of CD33 on primary AML cells, flow cytometry. It is filed as cell-based. How it is done: Three primary AML samples were seeded in a 12-well plates at 1×10^6 cells/ml, as previously described (Krupka, Subklewe et. al, Blood 2014). Cells were either left untreated (UT) or treated with 10 μM (H1) or 100 μM (H2) hydroxyurea (Sigma) for three consecutive days (day 0, day 1 and day 2). On day 1-day 3, cells were harvested, counted and analyzed for changes in CD33 surface expression by flow cytometry.

The target of data set [4] is T1, CD19 B-cell surface antigen and CD3 (Homo sapiens, UniProt P07766+P15391).
T1 construct: host or cells: patients (endogenous CD19 on B cells, CD3 epsilon on T cells)
The conditions noted are these: patients with B-cell lymphomas and B precursor ALL; cited from earlier work.

Data set [5] has as its target T2, CD33 (Homo sapiens, UniProt P20138).
T2 construct: myeloid differentiation antigen found on AML blasts in most patients; host or cells: AML patients (endogenous CD33 on blasts)
Conditions: cited from earlier work.

Data set [6] relates to OCI-AML3 cells. Briefly: AMG 330-induced cytotoxicity with healthy donor T-cells (DAPI, 48 h) after epigenetic drug pretreatment. The conditions noted are these: 3-day pretreatment, relative to untreated cells. It is filed as cell-based, human.
Protocol: Parental OCI-AML3 and KG-1a cells were either left untreated or pretreated with panobinostat for 72 hours. […] 48 hours later, cell counts were determined and cytotoxicity was assessed with DAPI staining to quantify drug-specific cytotoxicity. Results are shown as mean±SEM from 3 independent experiments performed in duplicate wells using a single healthy donor as source for exogenous T-cells.
(§2) For the experimental settings mononuclear cells were collected from healthy adult volunteers via leukapheresis, and T cells enriched through magnetic cell sorting (Pan T Cell Isolation Kit II; Miltenyi Biotec, Auburn, Calif.). Thawed cell aliquots were labeled with 3 μM CellVue Burgundy (eBioscience, San Diego, Calif.) according to the manufacturer's instructions.
(§3) For the quantification of compound induces cytotoxicity AML cells were taken during exponential growth and incubated at 37° C. […] After 48 hours, cell numbers and drug-induced cytotoxicity, using 4′,6-diamidino-2-phenylindole (DAPI) to detect non-viable cells, were determined using a LSRII flow cytometer (BD Biosciences, San Jose, Calif.) and analyzed with FlowJo (Tree Star, Ashland, Oreg.). AML cells were identified by forward/side scatter properties and negativity for CellVue Burgundy dye.
Data set [7] has as its system KG-1a cells. The description is as above. The conditions noted are these: 3-day pretreatment, relative to untreated cells.
Protocol: Parental OCI-AML3 and KG-1a cells were either left untreated or pretreated with panobinostat for 72 hours. […] 48 hours later, cell counts were determined and cytotoxicity was assessed with DAPI staining to quantify drug-specific cytotoxicity.
Parental KG-1a cells were either left untreated or pretreated with azacitidine for 72 hours. […] 48 hours later, cell counts were determined and cytotoxicity was assessed with DAPI staining to quantify drug-specific cytotoxicity.
as §2, §3
In data set [8] the test system is KG-1a cells. Briefly: CD33 expression by flow cytometry (PE anti-CD33 P67.6) after pretreatment with epigenetic drug. It is filed as cell-based, human. Conditions: 3-day pretreatment, relative to untreated.
Description: CD33 expression on parental AML cells and cell lines was quantified by flow cytometry using a phycoerythrin (PE)-conjugated anti-CD33 antibody (clone P67.6; BD Biosciences, San Jose, Calif., USA) (see Walter et al. Blood. 2005; 105(3):1295-1302).
In data set [9] the test system is AML target cells. The conditions noted are these: co-therapy of lintuzumab and 5-azacytidine; cited from earlier work.
Data set [10] relates to AML cells or macrophages. Conditions: incubation of AML cells or macrophages; cited from earlier work.

T2 sequence (P20138 18-364): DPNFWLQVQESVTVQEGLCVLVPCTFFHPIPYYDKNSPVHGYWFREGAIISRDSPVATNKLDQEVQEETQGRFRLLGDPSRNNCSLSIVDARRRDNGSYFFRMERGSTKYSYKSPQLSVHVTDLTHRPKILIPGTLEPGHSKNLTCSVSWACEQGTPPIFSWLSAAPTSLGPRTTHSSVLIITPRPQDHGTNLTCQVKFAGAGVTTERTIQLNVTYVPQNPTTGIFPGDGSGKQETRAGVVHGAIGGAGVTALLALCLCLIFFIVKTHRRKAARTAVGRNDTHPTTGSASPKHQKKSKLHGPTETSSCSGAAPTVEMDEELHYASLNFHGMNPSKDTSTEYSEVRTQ

Consider `NC(=O)NO` [hydroxyurea, Hydroxyurea], for which the “CD33 MFI Ratio” value in data set [1] (HL-60, H1 = 10 μM hydroxyurea on three consecutive days) was 171.3; in [1] (HL-60, H2 = 100 μM hydroxyurea on three consecutive days) it was 210.0; in [2] (PL21, H1 = 10 μM hydroxyurea on three consecutive days), 177.9; in data set [2] (PL21, H2 = 100 μM hydroxyurea on three consecutive days), 191.8; in data set [3] (primary AML cells patient 2, day 1, H1 = 10 μM hydroxyurea, untreated 3.7) it was 4.2; in data set [3] (primary AML cells patient 2, day 1, H2 = 100 μM hydroxyurea, untreated 3.7), 4.5. Besides, the “CD33 MFI Ratio” value in data set [3] (primary AML cells patient 2, day 2, H1 = 10 μM hydroxyurea, untreated 4.8) is 4.2; in data set [3] (primary AML cells patient 2, day 2, H2 = 100 μM hydroxyurea, untreated 4.8), 5.1. The “upregulation of CD33 (in words)” value in [1] (HL-60 AML cells, 10 and 100 μM) is given as “upregulation of CD33”; in [2] (PL21 AML cells, 10 and 100 μM), “upregulation of CD33”. Also, in [3] (three primary AML samples, day 1 and day 2 of incubation), the “up-regulation of CD33 in patient samples (in words)” value was “up-regulation of CD33 in 1 of 3 patient samples”.
For the molecule “blinatumomab: bispecific antibody directed at CD19 and the CD3 component of the T-cell receptor complex”, in data set [4], the therapeutic efficacy result was “therapeutic efficacy was shown”.
As for “lintuzumab: intact humanized CD33 antibody”, in [5] (phase III trial, combined with a triple chemotherapy regimen), the survival benefit result was “no survival benefit”. Besides, in data set [5] (single-agent phase I and II trial), the clinical response result is on record as “complete remission in individual patients”.
Take `Cc1[nH]c2ccccc2c1CCNCc1ccc(/C=C/C(=O)NO)cc1` [panobinostat]: the “sensitivity to AMG 330-induced cytotoxicity” value in data set [6] and in [7] was “modestly more sensitive” each time.
On to `Nc1ncn([C@@H]2O[C@H](CO)[C@@H](O)[C@H]2O)c(=O)n1` [azacitidine, 5-azacytidine], for which the CD33 expression entry is recorded as “significant increase” in data set [8] and “did not affect” in data set [10]. The “lintuzumab-mediated ADCC” value in data set [9] is “improved”.
